In one test the target is 229E Mpro (Human coronavirus 229E, UniProt P0C6X1). The test is described as follows: 229E Mpro enzymatic assay (standard methods, SARS-CoV2 Mpro assay given as exemplary). Format: biochemical, human coronavirus (HCov) 229E. The method, then:
Compounds were assayed using standard methods to assess compound activity and IC50. As an exemplary for assessment of the SARS-COV2 Mpro, the C-His6-tagged Mpro (NC_045512) was cloned, expressed in E. coli and purified. The assay buffer contained 20 mM of Tris-HCl (pH 7.3), 100 mM of NaCl, 1 mM of EDTA, 5 mM of TCEP and 0.1% BSA. The final concentrations of the Mpro protein and substrate were 25 nM and 25 μM, respectively, in the Mpro enzymatic assay. The Km of the Mpro substrate for the protease was 13.5 μM.
The compounds were added to an assay plate. […] For no inhibition control (ZPE, zero percent effect), no compound was added.
IC50 values of compounds were calculated with the GraphPad Prism software using the nonlinear regression model of log(inhibitor) vs. response—Variable slope (four parameters). The inhibition activity was calculated using the formula below, IC50 values is calculated using the Inhibition % data.
Inhibition %=[(Sample-Average ZPE)/(Average HPE-Average ZPE)]*100%^#

Test [1] addresses COVID-19 (nCoV-2019, SARS-CoV2) Mpro (Severe acute respiratory syndrome coronavirus 2, UniProt P0DTD1). As to the kind of experiment: COVID-19 (nCoV-2019, SARS-CoV2) Mpro enzymatic assay. Format: biochemical. As to conditions: 25 nM Mpro, 25 μM substrate; read-out: COVID-19 Mpro IC50.
Another test relates to HCov OC43. The test is described as follows: HCoV OC43 cytopathic effect (CPE) assay, CellTiter Glo. Type of test: cell-based, human coronavirus (HCov) OC43. On the procedure:
Example 238: Evaluation of antiviral activity of compounds against human coronavirus (HCov) 229E and OC43 in the cytopathic effect (CPE) assays
Compounds were assayed using standard methods against multiple coronaviral strains, including HCoV 229E and OC43 strains. The antiviral activity of compounds was calculated based on the protection of the virus-induced CPE at each concentration normalized by the virus control.
Reference compound used was remdesivir; detection reagent: CellTiter Glo.) The CPE were measured by CellTiter Glo following the manufacturer's manual. The antiviral activity of compounds was calculated based on the protection of the virus-induced CPE at each concentration normalized by the virus control.
Cell viability was measured with CellTiter Glo.
Background: Protection from cytopathic effect is a common read-out in antiviral testing.

[2] abbreviates: Betacoronavirus 1, OC43, read-out: OC43 IC50 (uM) MEDIAN, median.
Where [3] appears, read: read-out: OC43 IC50 (uM) MEDIAN, median.

Like-named read-outs stand apart in the source and are kept apart here. Some results are limits rather than exact numbers.

As usually defined, the EC50 is the midpoint of the concentration-response curve. The IC50 is the midpoint of a concentration-inhibition curve.

229E Mpro, sequence (P0C6X1 2966-3267): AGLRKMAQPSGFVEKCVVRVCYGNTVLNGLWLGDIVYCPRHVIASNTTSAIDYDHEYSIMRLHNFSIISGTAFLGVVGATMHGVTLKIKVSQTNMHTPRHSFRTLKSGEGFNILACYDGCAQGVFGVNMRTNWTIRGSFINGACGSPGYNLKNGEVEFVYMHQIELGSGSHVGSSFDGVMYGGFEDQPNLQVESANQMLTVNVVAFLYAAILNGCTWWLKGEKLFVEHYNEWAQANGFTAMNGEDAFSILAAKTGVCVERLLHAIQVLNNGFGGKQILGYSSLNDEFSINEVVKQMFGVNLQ

For `N#CN1C[C@H]2C[C@H]2[C@@H]1C(=O)N(c1ccc(S(F)(F)(F)(F)F)cc1)C(C(=O)NC1CCC(F)(F)CC1)c1cncc(F)c1` (stereo partly drawn) [Compound 1095b, (1R,2R,5S)-3-cyano-N-[2-[(4,4-difluorocyclohexyl)amino]-1-(5-fluoro-3-pyridyl)-2-oxo-ethyl]-N-[4-(pentafluoro-λ^6-sulfanyl)phenyl]-3-azabicyclo[3.1.0]hexane-2-carboxamide], the EC50 at 229E Mpro (229E Mpro EC50) was < 2000 nM. The IC50 is < 2000 nM in test [1] and < 2 µM with HCov OC43 (setting [2]).
On to `N#CN1C[C@H](O)C[C@@H]1C(=O)N(c1ccc(S(F)(F)(F)(F)F)cc1)C(C(=O)NC1CCCCC1)c1cccnc1` (single isomer, unassigned) [Compound 791 Isomer 1], for which the concentration for a half-maximal effect (EC50) at 229E Mpro (229E Mpro EC50) was < 2000 nM. For the same compound, the values for the IC50 (in test [1]; in the test with HCov OC43 (setting [2])) were < 2000 nM and < 2 µM, respectively.
On to `CO[C@@H]1C[C@H](C(=O)N(c2ccc(S(F)(F)(F)(F)F)cc2)C(C(=O)NC(C)C2CCCCN2)c2cccnc2)N(C#N)C1` (stereo partly drawn) [Compound 1123, (2R,4R)-1-cyano-4-methoxy-N-[2-oxo-2-[1-(2-piperidyl)ethylamino]-1-(3-pyridyl)ethyl]-N-[4-(pentafluoro-λ^6-sulfanyl)phenyl]pyrrolidine-2-carboxamide], for which the EC50 on 229E Mpro (229E Mpro EC50) was < 2000 nM. For the same compound, the values for the IC50 (in test [1]; in the test on HCov OC43 (setting [2])) were < 2000 nM and < 2 µM, respectively.
As for `N#CN1C[C@@H](OC(F)F)C[C@@H]1C(=O)N(c1ccc(S(F)(F)(F)(F)F)cc1)C(C(=O)NC1CCC(F)(F)CC1)c1cncc(F)c1` (single isomer, unassigned) [Compound 823a Isomer 1], the EC50 at 229E Mpro (229E Mpro EC50) is < 2000 nM. In addition, the IC50 was < 2000 nM in test [1] and < 2 µM in the test with HCov OC43 (setting [2]).
For `CC(C)(C)c1ccc(N(C(=O)[C@H]2C[C@@H](O)CN2C#N)C(C(=O)NC2CCCCC2)c2cncc(Cl)c2)cc1` (single isomer, unassigned) [675 Isomer 2], the half-maximal effective concentration (EC50) on 229E Mpro (read-out: 229E Mpro EC50) is < 2000 nM. Also, the IC50 in test [1] was 2000 to 10000 nM; with HCov OC43 (setting [3]) it was 2 to 10 µM.
Taken in the same sequence, the figures for `N#C[C@H]1C[C@H](C(=O)N(c2ccc(S(F)(F)(F)(F)F)cc2)C(C(=O)NC2CCC(F)(F)CC2)c2cncc(F)c2)N(C#N)C1` (single isomer, unassigned) [1100 Isomer 2] were < 2000 nM, < 2000 nM and < 2 µM.
Take `C[C@@H]1CN(C#N)[C@H]1C(=O)N(c1ccc(S(F)(F)(F)(F)F)cc1)C(C(=O)NC1CCC(F)(F)CC1)c1cncc(F)c1` (single isomer, unassigned) [1211 Isomer 1]: the EC50 on 229E Mpro (229E Mpro EC50) is < 2000 nM. The IC50 in test [1] is 2000 to 10000 nM; with HCov OC43 (setting [2]) it was < 2 µM.
For `CO[C@@H]1C[C@H](C(=O)N(c2ccc(S(F)(F)(F)(F)F)cc2)C(C(=O)NCC(C)(C)OC)c2cccnc2)N(C#N)C1` (single isomer, unassigned) [1194 Isomer 2], the EC50 at 229E Mpro (read-out: 229E Mpro EC50) is < 2000 nM. Further, the IC50 was 10000 to 30000 nM in test [1] and 2 to 10 µM with HCov OC43 (setting [3]).
`CO[C@@H]1C[C@H](C(=O)N(c2ccc(S(F)(F)(F)(F)F)cc2)C(C(=O)NC2CCOC(C)(C)C2)c2cccnc2)N(C#N)C1` (single isomer, unassigned) [1165 Isomer 1]: the half-maximal effective concentration (EC50) on 229E Mpro (229E Mpro EC50) is < 2000 nM. For the same compound, the IC50 in test [1] was < 2000 nM; in the test with HCov OC43 (setting [2]) it was < 2 µM.
With `CO[C@@H]1C[C@H](C(=O)N(c2ccc(S(F)(F)(F)(F)F)cc2)C(C(=O)NC2CCC(F)(F)CC2)c2nncn2C(C)C)N(C#N)C1` (stereo partly drawn) [Compound 1307, (2R,4R)-1-cyano-N-[2-[(4,4-difluorocyclohexyl)amino]-1-(4-isopropyl-1,2,4-triazol-3-yl)-2-oxo-ethyl]-4-methoxy-N-[4-(pentafluoro-λ6-sulfanyl)phenyl]pyrrolidine-2-carboxamide], the EC50 on 229E Mpro (229E Mpro EC50) was > 30000 nM. Besides, the results for the IC50 (in test [1]; with HCov OC43 (setting [2])) were > 30000 nM and > 30 µM, respectively.
Turning to `CC(C)(C)c1ccc(N(C(=O)[C@H]2CC(=O)CN2C#N)C(C(=O)NC2CCCCC2)c2cccnc2)cc1` (single isomer, unassigned) [Compound 278 Isomer 1], the EC50 on 229E Mpro (229E Mpro EC50) is < 2000 nM. The IC50 in test [1] was in the range of 2000 to 10000 nM; with HCov OC43 (setting [2]), 10 to 30 µM.
As to `CC1(C)CCNc2cc(N(C(=O)[C@H]3C[C@@](C)(O)CN3C#N)C(C(=O)NC3CCC(F)(F)CC3)c3cncc(F)c3)ccc21` (single isomer, unassigned) [Compound 1127 Isomer 2], the EC50 at 229E Mpro (read-out: 229E Mpro EC50) was < 2000 nM. The IC50 was < 2000 nM in test [1] and < 2 µM with HCov OC43 (setting [2]).
At 229E Mpro (229E Mpro EC50), `N#CN1CC[C@H]2C[C@]21C(=O)N(c1ccc(S(F)(F)(F)(F)F)cc1)C(C(=O)NC1CCC(F)(F)CC1)c1cncc(F)c1` (stereo partly drawn) [Compound 1261, (1R,5S)-2-cyano-N-[2-[(4,4-difluorocyclohexyl)amino]-1-(5-fluoro-3-pyridyl)-2-oxo-ethyl]-N-[4-(pentafluoro-λ^6-sulfanyl)phenyl]-2-azabicyclo[3.1.0]hexane-1-carboxamide] showed a 50% effective concentration (EC50) of 2000 to 10000 nM. Besides, the IC50 in test [1] is > 30000 nM; in the test with HCov OC43 (setting [2]), > 30 µM.
With `CC(C)(C)c1ccc(N(C(=O)[C@H]2[C@H](F)CCN2C#N)C(C(=O)NC2CCC(F)(F)CC2)c2cncc(F)c2)cc1` (single isomer, unassigned) [1212 Isomer 2], the EC50 on 229E Mpro (read-out: 229E Mpro EC50) is < 2000 nM. The IC50 in test [1] was < 2000 nM; in the test on HCov OC43 (setting [3]), < 2 µM.
With `CC(C)(C)c1ccc(N(C(=O)[C@H]2CCCN2C#N)C(C(=O)N2CCNC(=O)C2)c2cccnc2)cc1` (single isomer, unassigned) [Compound 961 Isomer 1], the EC50 at 229E Mpro (229E Mpro EC50) is < 2000 nM. In addition, the IC50 was 2000 to 10000 nM in test [1] and 2 to 10 µM in the test with HCov OC43 (read-out: OC43 IC50 (uM) MEDIAN, median, listed as 961 Isomer 1).
Turning to `N#CN1C[C@H](O)C[C@@H]1C(=O)N(c1ccc(C2(C(F)(F)F)CC2)cc1)C(C(=O)NC1CCC(F)(F)CC1)c1cncc(F)c1` (single isomer, unassigned) [Compound 815a Isomer 1], the EC50 at 229E Mpro (229E Mpro EC50) was < 2000 nM. For the same compound, the IC50 is < 2000 nM in test [1] and < 2 µM in the test with HCov OC43 (setting [2]).
Regarding `CO[C@@H]1C[C@H](C(=O)N(c2ccc(S(F)(F)(F)(F)F)cc2)C(C(=O)NC2CCC(F)(F)CC2)c2cnccc2C)N(C#N)C1` (single isomer, unassigned) [1199 Isomer 2], on 229E Mpro (read-out: 229E Mpro EC50), the EC50 was < 2000 nM. The values for the half-inhibitory concentration (IC50) (in test [1]; with HCov OC43 (setting [3])) were < 2000 nM and < 2 µM, respectively.
Consider `CO[C@@H]1C[C@H](C(=O)N(c2ccc(S(F)(F)(F)(F)F)cc2)C(C(=O)NCCN2CCN(C(=O)OC(C)(C)C)CC2)c2cccnc2)N(C#N)C1` (stereo partly drawn) [Compound 1267, tert-butyl4-[2-[[2-[N-[(2R,4R)-1-cyano-4-methoxy-pyrrolidine-2-carbonyl]-4-(pentafluoro-λ^6-sulfanyl)anilino]-2-(3-pyridyl)acetyl]amino]ethyl]piperazine-1-carboxylate], for which the EC50 on 229E Mpro (229E Mpro EC50) is < 2000 nM. Further, the IC50 is 2000 to 10000 nM in test [1] and < 2 µM with HCov OC43 (setting [2]).
The like results for `C[C@H](NC(=O)C(c1cnccc1C(F)(F)F)N(C(=O)[C@H]1C[C@@](C)(O)CN1C#N)c1ccc(S(F)(F)(F)(F)F)cc1)c1ccccc1` (stereo partly drawn) [Compound 1347, (2R,4R)-1-cyano-4-hydroxy-4-methyl-N-[2-oxo-2-[[(1S)-1-phenylethyl]amino]-1-[4-(trifluoromethyl)-3-pyridyl]ethyl]-N-[4-(pentafluoro-λ6-sulfanyl)phenyl]pyrrolidine-2-carboxamide] were, in that order, < 2000 nM, < 2000 nM and < 2 µM.
With `N#CN1C[C@H](O)C[C@@H]1C(=O)N(c1ccc(C2(C(F)(F)F)CC2)cc1)C(C(=O)NC1CCCCC1)c1cccnc1` (single isomer, unassigned) [735 Isomer 1], the EC50 at 229E Mpro (229E Mpro EC50) was < 2000 nM. Also, the IC50 in test [1] is < 2000 nM; with HCov OC43 (setting [2]), < 2 µM.
On to `Cc1ccnc(C)c1C(C(=O)NC1CCC(F)(F)CC1)N(C(=O)[C@H]1C[C@@](C)(O)CN1C#N)c1ccc(S(F)(F)(F)(F)F)cc1` (stereo partly drawn) [Compound 997c, (2R,4R)-1-cyano-N-[2-[(4,4-difluorocyclohexyl)amino]-1-(2,4-dimethyl-3-pyridyl)-2-oxo-ethyl]-4-hydroxy-4-methyl-N-[4-(pentafluoro-λ^6-sulfanyl)phenyl]pyrrolidine-2-carboxamide], for which the EC50 at 229E Mpro (229E Mpro EC50) was < 2000 nM. Further, the half-maximal inhibitory concentration (IC50) in test [1] lay within 10000 to 30000 nM; in the test with HCov OC43 (setting [2]) it was 2 to 10 µM.
Taken in the same sequence, the figures for `N#CN1C[C@@H]2CC[C@@H]2[C@@H]1C(=O)N(c1ccc(S(F)(F)(F)(F)F)cc1)C(C(=O)NC1CCC(F)(F)CC1)c1cncc(F)c1` (single isomer, unassigned) [1097 Isomer 1] were < 2000 nM, < 2000 nM and < 2 µM.

The record behind these values is patent US20220380347A1, “INHIBITORS OF CYSTEINE PROTEASES AND METHODS OF USE THEREOF” (Pardes Biosciences, Inc., priority 2020, published 2022).
